The values that follow come from US10370351B2, “Photoinduced electron transfer voltage-sensitive compounds” (The Regents of the University of California, priority 2016, dated 2019).

Converted amounts (≈) assume the structure as drawn.

The nature of data set [1]: Solubility of VoltageFluor dyes and sulfofluoresceins in water. Format: physicochemical. As to conditions: for solubility at 3 days: water, 20 °C, kinetic from dmso stock, H2O with 0.1% DMSO, read-out: aqueous solubility. Here is the method: Suspensions of 5 milligrams each of solid mono- and disulfo-dichlorofluoresceins in 5 mL of distilled water were created. Over the course of three days, 5 milligrams of solid material was added at a time, ensuring that no visible particulates were present in the solution prior to addition. At the end of the experiment, the suspension was filtered through filter paper and then through a 0.22-μm polytetrafluoroethylene filter into a scintillation vial. 10 μL of this filtrate was used as a stock solution to determine the concentration of fluorescein present via UV-Vis spectrophotometry and the remainder was lyophilized and the amount of solid resulting was measured using an analytical microbalance. For VF dyes (VF2.1.Cl and VF2.2(OMe).Cl, both ms and ds versions), saturated solutions in distilled water were prepared via dilution from a 100 μM stock in DMSO for a resulting solution containing 0.1% DMSO. The solutions were allowed to sit overnight at 20 degrees Celsius and then filtered through 0.22-μm filters. The resulting filtrates were used as stock solutions to determine the amount of VF present via UV-Vis spectrophotometry.

The next data set concerns HEK293T cells. Briefly: Voltage sensitivity in HEK cells, whole-cell patch clamp with fluorescence imaging. Format: cell-based. The note with it: for ΔF/F (%) voltage sensitivity: per 100 mV, HEK cells, whole-cell voltage clamp, 200 nM VF; for Improvement (%) in voltage sensitivity: relative to corresponding msVF. The protocol: Functional imaging of VF dyes was performed using a 20× objective paired with image capture from the EMCCD camera at a sampling rate of 0.5 kHz. VF dyes were excited using the 488 nm LED with an intensity of 2.5 W/cm^2. For initial voltage characterization emission was collected with the QUAD filter (430/32, 508/14, 586/30, 708/98 nm) after passing through a quadruple dichroic mirror (432/38, 509/22, 586/40, 654 nm LP).
Recordings were obtained with an Axopatch 200B amplifier (Molecular Devices) at room temperature. The signals were digitized with Digidata 1332A, sampled at 50 kHz and recorded with pCLAMP 10 software (Molecular Devices) on a PC. Fast capacitance was compensated in the on-cell configuration. For all electrophysiology experiments, recordings were only pursued if series resistance in voltage clamp was less than 30 MΩ. For whole-cell, voltage clamp recordings in HEK 293T cells, cells were held at −60 mV and 100 ms hyper- and depolarizing steps applied from −100 to +100 mV in 20 mV increments. For whole-cell, following membrane rupture, resting membrane potential was assessed and recorded at I=0 and monitored during the data acquisition.
Analysis of voltage sensitivity in HEK cells was performed using custom Matlab routines. Briefly, a region of interest (ROI) was selected automatically based on fluorescence intensity and applied as a mask to all image frames. Fluorescence intensity values were calculated at known baseline and voltage step epochs.
To determine the voltage sensitivity of each of the dyes, whole-cell patch clamp electrophysiology was performed on HEK293T cells loaded with 200 nM VF (FIG. 8a-d). Depolarization of the cell membrane in the presence of VF dye results in a large increase of fluorescence, while hyperpolarization results in lower levels of fluorescence (FIG. 8c-d; FIG. 9). As an illustrative comparison, msVF2.2(OMe). […] Cl, at 48% per 100 mV. The disulfoVF2.2(OMe).
Background: Patch clamp records ionic current or voltage across a cell membrane.

The nature of data set [2]: Spectroscopic studies (absorbance, emission, quantum yield). Format: physicochemical. As to conditions: phosphate-buffered saline, pH 7.4 with 0.1% Triton X-100. The protocol:
Stock solutions of VF dyes were prepared in DMSO (1.0-10 mM) and diluted with PBS (100 mM Na2HPO4, pH 7.4, 0.1% Triton-X). UV-Vis absorbance and fluorescence spectra were recorded using a Shimadzu 2501 Spectrophotometer (Shimadzu) and a Quantamaster Master 4 L-format scanning spectrofluorometer (Photon Technologies International). The fluorometer is equipped with an LPS-220B 75-W xenon lamp and power supply, A-1010B lamp housing with integrated igniter, switchable 814 photon-counting/analog photomultiplier detection unit, and MD5020 motor driver. Samples were measured in 1-cm path length quartz cuvettes (Starna Cells).

For the compound “5-bromo-2′,7′-dichlorodisulfofluorescein [ds-dichlorofluorescein]”, the “improvement of aqueous solubility” value in data set [1] (relative to monosulfo 5, spectroscopically or gravimetrically) is listed as 2.3 fold.
One may read the solubility as the dissolved amount per volume that the medium holds. On to `O=c1cc2oc3cc(O)c(Cl)cc3c(-c3c(S(=O)(=O)O)cc(Br)cc3S(=O)(=O)O)c-2cc1Cl` [ds-dichlorofluorescein, 5-bromo-2′,7′-dichlorodisulfofluorescein], for which, in data set [1], the solubility at 3 days was no more than 940 µM.
Turning to `CN(C)c1ccc(/C=C/c2ccc(/C=C/c3cc(S(=O)(=O)O)c(-c4c5cc(Cl)c(=O)cc-5oc5cc(O)c(Cl)cc45)c(S(=O)(=O)O)c3)cc2)cc1` [dsVF2.1.Cl], in the data set on HEK293T cells, the “ΔF/F (%) voltage sensitivity” value worked out at 36% and the “Improvement (%) in voltage sensitivity” value is given as 21%. Further, in data set [2], the “Φf1 (fluorescence quantum yield)” value came out at 0.08, the λabs was 520 nm and the λem was 539 nm. The “improvement of aqueous solubility by second sulfonate” value in data set [1] (ds vs ms VF dye, distilled water, 0.1% DMSO, 20 degrees Celsius, UV-Vis) is 22%.
Consider `CN(C)c1ccc(/C=C/c2ccc(/C=C/c3cc(S(=O)(=O)O)c(-c4c5cc(F)c(=O)cc-5oc5cc(O)c(F)cc45)c(S(=O)(=O)O)c3)cc2)cc1` [dsVF2.1.F], for which, in the data set on HEK293T cells, the “ΔF/F (%) voltage sensitivity” value is 33% and the “Improvement (%) in voltage sensitivity” value is 25%. For the same compound, in data set [2], the “Φf1 (fluorescence quantum yield)” value is on record as 0.13, the λabs was 507 nm and the λem amounted to 529 nm.
Turning to `CN(C)c1ccc(/C=C/c2ccc(/C=C/c3cc(S(=O)(=O)O)c(-c4c5ccc(=O)cc-5oc5cc(O)ccc45)c(S(=O)(=O)O)c3)cc2)cc1` [dsVF2.1.H], in the data set with HEK293T cells, the “ΔF/F (%) voltage sensitivity” value amounted to 20% and the “Improvement (%) in voltage sensitivity” value stood at 17%. In addition, in data set [2], the “Φf1 (fluorescence quantum yield)” value came to 0.14, the λabs came to 509 nm and the λem came to 540 nm.
On the same counts, the results for `CCN(CC)c1ccc(/C=C/c2ccc(/C=C/c3cc(S(=O)(=O)O)c(-c4c5cc(F)c(=O)cc-5oc5cc(O)c(F)cc45)c(S(=O)(=O)O)c3)cc2)c(OC)c1` [dsVF2.2(OMe).F] are 60%, 22%, 0.06, 509 nm and 529 nm.
On the same counts, the results for `CCN(CC)c1ccc(/C=C/c2ccc(/C=C/c3cc(S(=O)(=O)O)c(-c4c5ccc(=O)cc-5oc5cc(O)ccc45)c(S(=O)(=O)O)c3)cc2)c(OC)c1` [dsVF2.2(OMe).H] are 57%, 9%, 0.11, 510 nm and 530 nm.
`O=c1cc2oc3cc(O)c(Cl)cc3c(-c3ccc(Br)cc3S(=O)(=O)O)c-2cc1Cl` [ms-dichlorofluorescein, 5-bromo-2′,7′-dichlorosulfofluorescein]: the solubility at 3 days in data set [1] was 410 µM (≈ 212 µg/mL).
In the case of `CCN(CC)c1ccc(/C=C/c2ccc(/C=C/c3ccc(-c4c5cc(Cl)c(=O)cc-5oc5cc(O)c(Cl)cc45)c(S(=O)(=O)O)c3)cc2)c(OC)c1` [msVF2.2(OMe).Cl], the “ΔF/F (%) voltage sensitivity” value in the data set with HEK293T cells is reported as 53%. For the same compound, the “ΔF/F (%) voltage sensitivity” value in the data set with HEK293T cells (listed as msVF2.2(OMe). Cl) was “approximately 53%”. For the same compound, in data set [2], the “Φf1 (fluorescence quantum yield)” value turned out to be 0.06, the λabs stood at 518 nm and the λem amounted to 534 nm.
Turning to `CCN(CC)c1ccc(/C=C/c2ccc(/C=C/c3ccc(-c4c5cc(F)c(=O)cc-5oc5cc(O)c(F)cc45)c(S(=O)(=O)O)c3)cc2)c(OC)c1` [msVF2.2(OMe).F], the “ΔF/F (%) voltage sensitivity” value with HEK293T cells is listed as 49%. Besides, in data set [2], the “Φf1 (fluorescence quantum yield)” value was determined as 0.06, the λabs worked out at 505 nm and the λem turned out to be 524 nm.
On the same counts, the results for `CCN(CC)c1ccc(/C=C/c2ccc(/C=C/c3ccc(-c4c5ccc(=O)cc-5oc5cc(O)ccc45)c(S(=O)(=O)O)c3)cc2)c(OC)c1` [msVF2.2(OMe).H] are 53%, 0.08, 508 nm and 530 nm.
